# Reference: patent US9573961B2, “Inhibitors of the renal outer medullary potassium channel” (Merck Sharp & Dohme Corp., priority 2012, dated 2017)
# Where two headings read alike, the source gives them in different places.
# Legend:
# hROMK (hKir1.1) = hROMK (hKir1.1) (Homo sapiens (Human), UniProt P48048); experiment: Thallium Flux Assay (ROMK channel functional thallium flux, FLIPR-Tetra); assay type: cell-based; details: HEK293 cells stably expressing hROMK (hKir1.1); read-out: Thallium Flux IC50
# Chain of hROMK (hKir1.1) (P48048 whole entry): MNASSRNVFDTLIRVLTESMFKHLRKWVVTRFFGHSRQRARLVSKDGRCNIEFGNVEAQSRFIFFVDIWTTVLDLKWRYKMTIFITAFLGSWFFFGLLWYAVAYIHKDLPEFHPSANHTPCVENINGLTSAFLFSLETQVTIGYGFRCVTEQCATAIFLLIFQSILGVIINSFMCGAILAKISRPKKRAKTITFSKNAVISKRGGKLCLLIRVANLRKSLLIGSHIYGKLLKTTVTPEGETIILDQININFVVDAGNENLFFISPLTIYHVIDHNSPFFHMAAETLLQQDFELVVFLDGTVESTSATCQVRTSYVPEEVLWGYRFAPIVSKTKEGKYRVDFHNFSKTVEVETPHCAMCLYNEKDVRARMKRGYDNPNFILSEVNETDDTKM
# Description: Cell Culture Conditions—HEK293 cells stably expressing hROMK (hKir1.1) were grown at 37° C. in a 10% CO2 humidified incubator in complete growth media: Dulbecco's Modified Eagle Medium supplemented with non-essential amino acids, Penicillin/Streptomycin/Glutamine, G418 and FBS. At >80% confluency, aspirate the media from the flask and rinse with 10 mL Calcium/Magnesium-free PBS. […] To dislodge the cell, gently bang the side of the flask with your hand. Triturate the cells completely and then transfer the cells to 25 mL complete media. Centrifuge at 1,500 rpm for 6 min followed by resuspension in complete growth media and determine cell concentration. […] Under ideal growth conditions and appropriate tissue culture practices, this cell line is stable for 40-45 passages.
# FluxOR Kit Components (Invitrogen F10017) • FluxOR™ Reagent (Component A) • FluxOR™ Assay Buffer (Component B)—10× Concentrate • PowerLoad™ Concentrate (Component C)—100× Concentrate • Probenecid (Component D)—Lyophilized sample is kept at −20° C. Water soluble, 100× after solubilization in 1 mL water. […] Store at 4° C. • Thallium sulfate (Tl2SO4) Concentrate (Component G)—50 mM in water. Store at 4° C. • DMSO (dimethyl sulfoxide, Component H)—1 mL (100%)
# Can be stored at room temperature • Stimulant Buffer (prepared at 5× final concentration in 1× FluxOR™ Chloride-Free Buffer): 7.5 mM Thallium sulfate and 0.75 mM Potassium sulfate (to give a final assay concentration of 3 mM Thallium/0.3 mM Potassium). Store at 4° C. when not in use. If kept sterile, this solution is good for months.
# Assay Protocol—The ROMK channel functional thallium flux assay is performed in 384 wells, using the FLIPR-Tetra instrument. HEK-hKir1.1 cells are seeded in Poly-D-Lysine microplates and kept in a 37° C.-10% CO2 incubator overnight. On the day of the experiment, the growth media is replaced with the FluxOR™ reagent loading buffer and incubated, protected from light, at ambient temperature (23-25° C.) for 90 min. The loading buffer is replaced with assay buffer±test compound followed by 30 min incubation at ambient temperature, where the Thallium/Potassium stimulant is added to the microplate.
# Step Protocol • 1. Seed HEK-hKir1.1 cells (50 μl at 20,000 cells/well) in 384-well PDL coated Microplates • 2. Allow cells to adhere overnight in humidified 37° C./10% CO2 incubator • 3. Completely remove cell growth media from microplate and replace with 25 μl loading buffer • 4. Incubate Microplate at room temperature, protected form light, for 90 min • 5. Remove loading buffer and replace with 25 μl 1× Assay Buffer±test compound. • 6. Incubate microplate at room temperature, protected from light, for 30 min • 7. […] Excitation=400 nm, Emission=460 & 580 nm. Collect data for ˜10 min.
# Data Calculation—The fluorescence intensity of wells containing 3 μM of a standard control ROMK inhibitor of the present invention is used to define the ROMK-sensitive component of thallium flux. Fluorescence in the presence of test compounds is normalized to control values to provide % fluorescence change.
# Kir1.1 (ROMK1) = Kir1.1 (ROMK1) (Homo sapiens (Human), UniProt P48048); experiment: Electrophysiology Assay (whole cell voltage clamp, IonWorks Quattro); assay type: cell-based; details: block during voltage step to 0 mV
# Chain of Kir1.1 (ROMK1) (P48048 whole entry): as above
# Description: Chinese hamster ovary cells stably expressing Kir1.1 channels were maintained in T-75 flasks in cell culture media in a humidified 10% CO2 incubator at 37° C. Prior to an experiment, Kir1.1 expression was induced by overnight incubation with 1 mM sodium butyrate. […] After centrifugation, the cell pellet was resuspended in approximately 4.0 mL of bath solution and placed in the IonWorks instrument. The intracellular solution consisted of (in mM): 80 K gluconate, 40 KCl, 20 KF, 3.2 MgCl2, 3 EGTA, 5 Hepes, pH 7.4. Electrical access to the cytoplasm was achieved by perforation in 0.13 mg/mL amphotericin B for 4 min. […] Voltage protocols and current recordings were performed using the IonWorks HT software/hardware system. Currents were sampled at 1 kHz. No correction for liquid junction potentials was used. The test pulse, consisting of a 100 ms step to 0 mV from a holding potential of −70 mV, followed by a 100 ms voltage ramp from −70 mV to +70 mV, was applied before and after a 6 min compound incubation period. Test compounds were prepared by diluting DMSO stock solutions into the bath solution at 3× the final concentration and placed in the instrument in 96-well polypropylene plates. Current amplitudes were measured using the IonWorks software.
# [1] = Chinese hamster ovary cells stably expressing Kir1.1, read-out: Electrophysiology IC50
# [2] = Electrophysiology IC50, Chinese hamster ovary cells stably expressing Kir1.1
SMILES,IC50 (hROMK (hKir1.1)) [µM],IC50 (Kir1.1 (ROMK1); [1]) [µM],IC50 (Kir1.1 (ROMK1); [2]) [µM]
"COc1cc([C@H]2CN3CCN(C(=O)C4CCc5cc(-n6cnnn6)ccc54)C[C@H]3CO2)ccc1C#N (mixture of isomers) [Example 66, 2-methoxy-4-[(3S,9aS)-8-{[5-(1H-tetrazol-1-yl)-2,3-dihydro-1H-inden-1-yl]carbonyl}octahydropyrazino[2,1-c][1,4]oxazin-3-yl]benzonitrile]",0.37,0.49,–
"Cc1c([C@@H]2CN3CCN(C(=O)C4CCc5cc(-n6cnnn6)ccc54)C[C@H]3CO2)ccc(F)c1C#N (mixture of isomers) [Example 2A, 3-((3R,9aS)-8-(5-(1H-tetrazol-1-yl)-2,3-dihydro-1H-indene-1-carbonyl)octahydropyrazino[2,1-c][1,4]oxazin-3-yl)-6-fluoro-2-methylbenzonitrile]",0.17,0.14,–
"Cc1c([C@@H]2CN3CCN(C(=O)C4CCc5cc(-n6cnnn6)ccc54)C[C@H]3CO2)ccc(F)c1C#N (mixture of isomers) [Example 2B, 3-((3R,9aS)-8-(5-(1H-tetrazol-1-yl)-2,3-dihydro-1H-indene-1-carbonyl)octahydropyrazino[2,1-c][1,4]oxazin-3-yl)-6-fluoro-2-methylbenzonitrile]",0.29,0.15,–
"O=C(C1CCc2cc(-n3cnnn3)ccc21)N1CCN2C[C@@H](c3cccc(-n4cnnn4)c3)OC[C@@H]2C1 (single isomer, unassigned) [Example 80]",0.13,0.28,–
"Cc1c([C@H]2CN3CCN(C(=O)CCc4cccc(-n5cnnn5)c4)CC3CO2)ccc(F)c1C#N (stereo in doubt) [Example 73, 6-fluoro-2-methyl-3-[(3S,9aS)-8-{3-[3-(1H-tetrazol-1-yl)phenyl]propanoyl}octahydropyrazino[2,1-c][1,4]oxazin-3-yl]benzonitrile]",0.14,–,–
"Cc1c([C@H]2CN3CCN(C(=O)Cc4ccc(-n5cnnn5)cc4)C[C@H]3CO2)ccc2c1COC2=O [Example 1B, 4-methyl-5-[(3S,9aS)-8-{[4-(1H-tetrazol-1-yl)phenyl]acetyl}octahydropyrazino[2,1-c][1,4]oxazin-3-yl]-2-benzofuran-1(3H)-one]",–,–,0.33
"N#Cc1cc([C@H]2CN3CCN(C(=O)C4CCc5cc(-n6cnnn6)ccc54)C[C@H]3CO2)ccc1F (stereo partly drawn) [Example 3, 2-fluoro-5-[(3S,9aS)-8-{[5-(1H-tetrazol-1-yl)-2,3-dihydro-1H-inden-1-yl]carbonyl}octahydropyrazino[2,1-c][1,4]oxazin-3-yl]benzonitrile]",–,0.18,–
"N#Cc1cc([C@@H]2CN3CCN(C(=O)C4CCc5cc(-n6cnnn6)ccc54)C[C@H]3CO2)ccc1F (stereo partly drawn) [Example 4, 2-fluoro-5-[(3R,9aS)-8-{[5-(1H-tetrazol-1-yl)-2,3-dihydro-1H-inden-1-yl]carbonyl}octahydropyrazino[2,1-c][1,4]oxazin-3-yl]benzonitrile]",–,0.19,–
"N#Cc1cc([C@@H]2CN3CCN(C(=O)Cc4cc(F)c(C#N)cc4F)C[C@H]3CO2)ccc1F [Example 5, 4-{2-[(3R,9aS)-3-(3-cyano-4-fluorophenyl)hexahydropyrazino[2,1-c][1,4]oxazin-8(1H)-yl]-2-oxoethyl}-2,5-difluorobenzonitrile]",–,–,0.12
COc1cc(CC(=O)N2CCN3C[C@@H](c4ccc(F)c(C#N)c4)OC[C@@H]3C2)ccc1C#N [Example 6],–,–,0.16
"O=C1OCc2cc([C@H]3CN4CCN(C(=O)Cc5ccc(-n6cnnn6)cc5)C[C@H]4CO3)ccc21 [Example 7, 5-[(3S,9aS)-8-{[4-(1H-tetrazol-1-yl)phenyl]acetyl}octahydropyrazino[2,1-c][1,4]oxazin-3-yl]-2-benzofuran-1(3H)-one]",–,0.17,–
"O=C1OCc2cc([C@@H]3CN4CCN(C(=O)Cc5ccc(-n6cnnn6)cc5)C[C@H]4CO3)ccc21 [Example 8, 5-[(3R,9aS)-8-{[4-(1H-tetrazol-1-yl)phenyl]acetyl}octahydropyrazino[2,1-c][1,4]oxazin-3-yl]-2-benzofuran-1(3H)-one]",–,0.14,–
"COc1cc(CC(=O)N2CCN3C[C@H](c4ccc5c(c4)COC5=O)OC[C@@H]3C2)c(F)cc1C#N [Example 9, 5-fluoro-2-methoxy-4-{2-oxo-2-[(3S,9aS)-3-(1-oxo-1,3-dihydro-2-benzofuran-5-yl)hexahydropyrazino[2,1-c][1,4]oxazin-8(1H)-yl]ethyl}benzonitrile]",–,0.14,–
"O=C1OCc2cc([C@H]3CN4CCN(C(=O)C5CCc6cc(-n7cnnn7)ccc65)C[C@H]4CO3)ccc21 (stereo partly drawn) [Example 11, 5-[(3S,9aS)-8-{[5-(1H-tetrazol-1-yl)-2,3-dihydro-1H-inden-1-yl]carbonyl}octahydropyrazino[2,1-c][1,4]oxazin-3-yl]-2-benzofuran-1(3H)-one]",–,0.34,–
"O=C1OCc2cc([C@@H]3CN4CCN(C(=O)C5CCc6cc(-n7cnnn7)ccc65)C[C@H]4CO3)ccc21 (stereo partly drawn) [Example 12, 5-[(3R,9aS)-8-{[5-(1H-tetrazol-1-yl)-2,3-dihydro-1H-inden-1-yl]carbonyl}octahydropyrazino[2,1-c][1,4]oxazin-3-yl]-2-benzofuran-1(3H)-one]",–,0.25,–
"COc1cc(CC(=O)N2CCN3C[C@H](c4ccc5c(c4C)COC5=O)OC[C@@H]3C2)c(F)cc1C#N [Example 16, 5-fluoro-2-methoxy-4-{2-[(3S,9aS)-3-(4-methyl-1-oxo-1,3-dihydro-2-benzofuran-5-yl)hexahydropyrazino[2,1-c][1,4]oxazin-8(1H)-yl]-2-oxoethyl}benzonitrile]",–,0.18,–
"COc1cc(CC(=O)N2CCN3C[C@@H](c4ccc5c(c4C)COC5=O)OC[C@@H]3C2)c(F)cc1C#N [Example 17, 5-fluoro-2-methoxy-4-{2-[(3R,9aS)-3-(4-methyl-1-oxo-1,3-dihydro-2-benzofuran-5-yl)hexahydropyrazino[2,1-c][1,4]oxazin-8(1H)-yl]-2-oxoethyl}benzonitrile]",–,0.16,–
"Cc1c([C@H]2CN3CCN(C(=O)CCc4cccc(-n5cnnn5)c4)C[C@H]3CO2)ccc2c1COC2=O [Example 71, 4-methyl-5-[(3S,9aS)-8-{3-[3-(1H-tetrazol-1-yl)phenyl]propanoyl}octahydropyrazino[2,1-c][1,4]oxazin-3-yl]-2-benzofuran-1(3H)-one]",0.49,–,–
"Cc1c([C@@H]2CN3CCN(C(=O)CCc4cccc(-n5cnnn5)c4)C[C@H]3CO2)ccc(F)c1C#N [Example 72, 6-fluoro-2-methyl-3-[(3R,9aS)-8-{3-[3-(1H-tetrazol-1-yl)phenyl]propanoyl}octahydropyrazino[2,1-c][1,4]oxazin-3-yl]benzonitrile]",0.27,–,–
"Cc1c([C@H]2CN3CCN(C(=O)C4Cc5ccc(-n6cnnn6)cc5C4)C[C@H]3CO2)ccc(F)c1C#N (stereo partly drawn) [Example 74, 6-fluoro-2-methyl-3-[(3S,9aS)-8-{[5-(1H-tetrazol-1-yl)-2,3-dihydro-1H-inden-2-yl]carbonyl}octahydropyrazino[2,1-c][1,4]oxazin-3-yl]benzonitrile]",–,0.16,–
